# System: Neuro-2A-cells
# Test: Slc knock-out / GFP-Puromycin donor knock-in co-transfection, GFP fluorescence
# Type: cell-based, murine
# Conditions: for transfection efficiency: PDD (Cas9-gRNA(Slc26a4)-DNA, GFP-Puromycin-LDS)
# Protocol: For further knock-out experiments, GE1741 and Neuro-2A cells were tested. The integration of a linear donor sequence (LDS) containing the gene for GFP into the genomic DNA was assessed using three kits from Origene (Herford, Germany): The Slcl9a3-KN2.0 (CAT #: KN515911), the Slc25a24-KN2.0 (CAT #: KN515970) and the Slc26a4-KN2.0 (CAT #: KN516006), which kits all three were mouse gene knock-out kits via CRISPR, non-homology mediated. The kits contained all-in-one plasmids, coding for Cas9 and the target specific sgRNAs. The Slc26a4 kit targeted the solute carrier family 26, member 4 in the chromosome 12. The indel efficiency by targeting the locus Slc26a4 could be already shown in Neuro-2A cells (Ryu et al., 2018), and for the linear-donor-kits (Slc19a3, Slc25a24) two different sgRNA-sequences were tested. […] Thus, for the knock-out of different solute carrier genes (Sic) in Neuro-2A-cells via CRISPR/Cas9, neuro-2A-cells were transfected with different kits in order to compare the efficiency of different targets (knocked-out gene) and different integration techniques (see FIG. 8 and FIG. 10).
# FIG. 9A-D Transfection efficiency of saponin-mediated PDD (Cas9-gRNA (Slc26a4)-DNA, LDS-DNA)-transfections. A: Neuro-2A-cells were transfected with PDD-nanoplexes (Cas9-gRNA (Slc26a4)-DNA, GFP-Puromycin-LDS, 4:1 and 8:1 mass ratio when the mass of the peptide and the DNA are considered), with and without GE1741-Co-administration. The application of GE1741 led to a transfection efficiency of 20% and 30%, respectively, for the 4:1 and 8:1 mass ratio. Lipofectamin3000 served as positive control. B-D: Distinct fluorescence intensity increase of Neuro-2A-cells after saponin-mediated GFP-gene knock-in. n≥3; *: significant difference compared to the saponin-free transfection (only nuclease), U-test was performed. FIG. 9B: negative control; FIG. 9C: PDD(Cas9-gRNA(Slc26a4)-DNA, Puro-GFP-LDS), 4:1); FIG. 9D: PDD(Cas9-gRNA(Slc26a4)-DNA, Puro-GFP-LDS), 4:1)+GE1741.
# FIG. 11A, B. Knockout of different solute carrier (Sic) in Neuro-2A-cells—homologous recombination vs. non-homologous recombination. Neuro-2A-cells were transfected using NHR kits and using HR kits in order to compare the efficiency for different targets and different integration techniques, under influence of the absence or presence of saponin GE1741 in the K16-peptide comprising nanoplexes. […] (A) co-transfection of plasmid DNA comprising nucleic acids encoding for Cas9 and gRNA(Slc26a4), and LDS DNA encoding for puromycin and green fluorescent protein (Puro-GFP-LDS). (B) co-transfection of plasmid DNA comprising nucleic acids encoding for Cas9 and gRNA(Slc), and donor template DNA encoding for puromycin and green fluorescent protein (Puro-GFP-DS) provided as DNA vector.
# The co-transfection of Neuro-2A-cells with the plasmid DNA encoding for the Cas9 and the gRNA, and the LDS encoding for the GFP and the Puromycin, was done in a poly-lysine K16 peptide—nucleic acid ratio of 4:1 and 8:1, and plasmid DNA and LDS was complexed equally (500 ng/well). Transfections of cells were performed with and without GE1741 in the cell culture medium in which the cells were cultured. The transfection efficiency under influence of the absence or presence of the saponin was compared to transfection under influence of the presence of Lipofectamin3000 during transfection of the cells.
# The integration of donor sequence into the genome can be performed via non-homologous recombination (‘NHR’) and homologous recombination (‘HR’). […]
smiles,measurement,setting,value
CC(=O)OC1C(C)OC(OC2C(C)OC(OC(=O)C34CCC(C)(C)CC3C3=CCC5C6(C)CCC(OC7OC(C(=O)O)C(O)C(OC8OCC(O)C(O)C8O)C7OC7OC(CO)C(O)C(O)C7O)C(C)(C=O)C6CCC5(C)C3(C)CC4O)C(OC3OC(C)C(OC4OCC(O)C(OC5OCC(O)C(O)C5O)C4O)C(O)C3O)C2O)C(O)C1OC(C)=O (centres unmarked) [GE1741],GFP expression (in words),"HR-knock-in kits (Slc4a4, Slc11a2), circular donor",no GFP expression
same,transfection efficiency vs saponin-free transfection (in words),"NHR-knock-in kits with LDS (Slc26a4, Slc19a3, Slc25a24), U-test",significant increase of transfection efficiency
same,transfection efficiency,4:1 mass ratio,20%
same,transfection efficiency,8:1 mass ratio,30%
same,transfected cells expressing fluorescence,"co-transfection Cas9-gRNA plasmid + LDS, 500 ng/well each, ratio 4:1 and 8:1",over 30%
